Measured values from patent US10730875B2, “Substituted imidazo[1,2-A]pyridin-2-ylamine compounds, and pharmaceutical compositions and methods of use thereof” (JN Therapeutics, priority 2015, dated 2020).

Legend:
Type in all cases: biochemical
[1] = target: human Janus kinase 2 (JAK2), recombinant catalytic domain (Homo sapiens (Human), UniProt O60674); assay: LanthaScreen TR-FRET enzymatic assay, JAK2
How it was run: (§1)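 Insect-cell-expressed catalytic domains (JAK1 aa 866-1154, 440 ng/mL; JAK2 aa 808-1132, 11 ng/mL; JAK3 aa 781-1124, 400 ng/mL; TYK2 aa 833-1187, 200 ng/mL) preincubated 15 min with compound, then reacted 1 h at room temperature with 100 nM GFP-STAT1 and 1 mM ATP. pTyr701 detected by TR-FRET (terbium antibody); IC50 from 10-dose sigmoid fits.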

[2] = target: human Janus kinase 1 (JAK1), recombinant catalytic domain (Homo sapiens (Human), UniProt P23458); assay: LanthaScreen TR-FRET enzymatic assay, JAK1; conditions: 1 mM ATP, GFP-STAT1 substrate, read-out: Inhibitory Activity IC50 JAK1
Chain of human Janus kinase 1 (JAK1), recombinant catalytic domain (P23458 866-1154): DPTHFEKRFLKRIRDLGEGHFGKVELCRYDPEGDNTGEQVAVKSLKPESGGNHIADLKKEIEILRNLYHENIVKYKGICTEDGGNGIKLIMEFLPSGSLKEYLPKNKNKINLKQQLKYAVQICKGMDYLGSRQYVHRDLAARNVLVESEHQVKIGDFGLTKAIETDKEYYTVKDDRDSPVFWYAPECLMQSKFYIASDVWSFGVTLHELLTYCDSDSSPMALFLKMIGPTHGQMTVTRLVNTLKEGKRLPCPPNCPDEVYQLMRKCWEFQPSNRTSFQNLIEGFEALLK
How it was run: as §1

[3] = test system: human Janus kinase 3 (JAK3), recombinant catalytic domain; assay: LanthaScreen TR-FRET enzymatic assay, JAK3; conditions: ratio of IC50 against JAK3 over IC50 against JAK1
How it was run: as §1

[4] = target: human Janus kinase 3 (JAK3), recombinant catalytic domain (Homo sapiens (Human), UniProt P52333); assay: LanthaScreen TR-FRET enzymatic assay, JAK3; conditions: TR-FRET, 1 mM ATP, GFP-STAT1 substrate; read-out: Inhibitory Activity IC50 JAK3
Chain of human Janus kinase 3 (JAK3), recombinant catalytic domain (Homo sapiens (Human), UniProt P52333) (P52333 781-1124): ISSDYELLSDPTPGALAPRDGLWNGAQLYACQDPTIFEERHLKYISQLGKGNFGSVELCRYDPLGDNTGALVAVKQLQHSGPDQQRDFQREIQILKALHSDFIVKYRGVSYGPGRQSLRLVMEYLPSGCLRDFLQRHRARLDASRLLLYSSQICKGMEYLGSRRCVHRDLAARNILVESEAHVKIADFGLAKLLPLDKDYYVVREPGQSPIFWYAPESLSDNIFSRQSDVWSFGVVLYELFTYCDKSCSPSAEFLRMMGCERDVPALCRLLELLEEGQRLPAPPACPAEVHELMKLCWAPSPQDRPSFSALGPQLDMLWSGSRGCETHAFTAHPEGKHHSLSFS
How it was run: as §1

Chain of human Janus kinase 2 (JAK2), recombinant catalytic domain (O60674 808-1132): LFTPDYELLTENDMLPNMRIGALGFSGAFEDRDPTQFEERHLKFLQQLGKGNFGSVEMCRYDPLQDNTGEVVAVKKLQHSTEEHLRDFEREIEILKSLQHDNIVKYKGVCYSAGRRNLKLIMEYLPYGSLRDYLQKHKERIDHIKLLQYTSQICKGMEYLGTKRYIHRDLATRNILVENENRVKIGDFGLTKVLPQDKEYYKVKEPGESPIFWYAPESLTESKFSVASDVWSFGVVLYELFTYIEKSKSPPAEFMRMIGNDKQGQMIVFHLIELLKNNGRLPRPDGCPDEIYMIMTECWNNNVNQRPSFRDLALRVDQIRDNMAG

## O=C(Nc1cn2c(-c3ccc(CN4CCS(=O)(=O)CC4)cc3F)cccc2n1)C1CC1 [Compound 14]
[1]; TR-FRET, 1 mM ATP, GFP-STAT1 substrate, read-out: Inhibitory Activity IC50 JAK2
  IC50: 1000 to 5000 nM
[1]; ratio of IC50 against JAK2 over IC50 against JAK1
  Selectivity JAK2/JAK1: A′ (A′ represents a ratio of greater than 8)
[2]
  IC50: ≤ 500 nM
[3]
  Selectivity JAK3/JAK1: A′ (A′ represents a ratio of greater than 8)
[4]
  IC50: > 5000 nM
